From patent US11834453B2, “Substituted pyrimido[5,4-d]pyrimidines as HER2 inhibitors” (Array BioPharma Inc., priority 2020, dated 2023)
Where two headings read alike, the source gives them in different places.

Key:
[1] = biological target: ErbB2 WT (Homo sapiens (Human), UniProt P04626); test: ErbB enzyme assay (CisBio HTRF KinEASE-TK), Assay 2; assay type: biochemical
In short: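 ErbB2 phosphorylates 250 nM biotin-TK substrate at 1 mM ATP in 25 mM HEPES pH 7.4, 10 mM MgCl2, 0.01% Triton X-100 and 2% DMSO, for 30 min at 22 °C. Product is detected by HTRF with Sa-XL665 and TK-Ab-Cryptate. Percent of control is set by DMSO-only wells and pre-quenched wells.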

[2] = biological target: ErbB2 with Exon 20 YVMA insertion (HER2-YVMA) (Homo sapiens (Human), UniProt P04626, INS775YVMA); test: Cellular phosphorylation assay, constitutive ErbB2 phosphorylation (Y1196) in engineered NIH 3T3 cells, Assay 4; assay type: cell-based
In short: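 Engineered NIH 3T3 cells expressing HER2-YVMA treated with compounds 1 h at 37 °C, then formaldehyde-fixed and methanol-permeabilized. pErbB2 Y1196 detected by in-cell infrared immunofluorescence, normalized to GAPDH. IC50 from the normalized curves.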

[3] = biological target: EGFR wild type (EGFR WT) (Homo sapiens (Human), UniProt P00533); test: Cellular phosphorylation assay, EGF-stimulated EGFR phosphorylation in engineered NIH 3T3 cells, Phospho-EGFR DuoSet IC ELISA, Assay 5; assay type: cell-based
In short: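 NIH 3T3 cells expressing EGFR WT (20,000/well, attached overnight) were exposed to serially diluted compound for 1 h at 37 °C, then stimulated with 100 ng/ml rEGF for 10 min. Phospho-EGFR in lysates measured by sandwich ELISA optical density; IC50 from curves.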

[4] = biological target: EGFR (Homo sapiens (Human), UniProt P00533); test: ErbB enzyme assay (CisBio HTRF KinEASE-TK), Assay 3; assay type: biochemical
In short: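 Inhibition is measured as reduced peptide phosphorylation by HTRF KinEASE-TK at 1 mM ATP and 250 nM substrate, 30 min at 22 °C. Values are IC50s from a 4-parameter logistic fit.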

[5] = biological target: ErbB2 insYVMA (HER2-YVMA, SEQ ID NO: 2) (Homo sapiens, UniProt P04626, INS775YVMA/P1170A); test: biochemical; details: ErbB2 insYVMA enzyme assay
Chain of ErbB2 insYVMA (HER2-YVMA, SEQ ID NO: 2) (P04626 with tags, fused parts or gaps INS775YVMA/P1170A limits assumed): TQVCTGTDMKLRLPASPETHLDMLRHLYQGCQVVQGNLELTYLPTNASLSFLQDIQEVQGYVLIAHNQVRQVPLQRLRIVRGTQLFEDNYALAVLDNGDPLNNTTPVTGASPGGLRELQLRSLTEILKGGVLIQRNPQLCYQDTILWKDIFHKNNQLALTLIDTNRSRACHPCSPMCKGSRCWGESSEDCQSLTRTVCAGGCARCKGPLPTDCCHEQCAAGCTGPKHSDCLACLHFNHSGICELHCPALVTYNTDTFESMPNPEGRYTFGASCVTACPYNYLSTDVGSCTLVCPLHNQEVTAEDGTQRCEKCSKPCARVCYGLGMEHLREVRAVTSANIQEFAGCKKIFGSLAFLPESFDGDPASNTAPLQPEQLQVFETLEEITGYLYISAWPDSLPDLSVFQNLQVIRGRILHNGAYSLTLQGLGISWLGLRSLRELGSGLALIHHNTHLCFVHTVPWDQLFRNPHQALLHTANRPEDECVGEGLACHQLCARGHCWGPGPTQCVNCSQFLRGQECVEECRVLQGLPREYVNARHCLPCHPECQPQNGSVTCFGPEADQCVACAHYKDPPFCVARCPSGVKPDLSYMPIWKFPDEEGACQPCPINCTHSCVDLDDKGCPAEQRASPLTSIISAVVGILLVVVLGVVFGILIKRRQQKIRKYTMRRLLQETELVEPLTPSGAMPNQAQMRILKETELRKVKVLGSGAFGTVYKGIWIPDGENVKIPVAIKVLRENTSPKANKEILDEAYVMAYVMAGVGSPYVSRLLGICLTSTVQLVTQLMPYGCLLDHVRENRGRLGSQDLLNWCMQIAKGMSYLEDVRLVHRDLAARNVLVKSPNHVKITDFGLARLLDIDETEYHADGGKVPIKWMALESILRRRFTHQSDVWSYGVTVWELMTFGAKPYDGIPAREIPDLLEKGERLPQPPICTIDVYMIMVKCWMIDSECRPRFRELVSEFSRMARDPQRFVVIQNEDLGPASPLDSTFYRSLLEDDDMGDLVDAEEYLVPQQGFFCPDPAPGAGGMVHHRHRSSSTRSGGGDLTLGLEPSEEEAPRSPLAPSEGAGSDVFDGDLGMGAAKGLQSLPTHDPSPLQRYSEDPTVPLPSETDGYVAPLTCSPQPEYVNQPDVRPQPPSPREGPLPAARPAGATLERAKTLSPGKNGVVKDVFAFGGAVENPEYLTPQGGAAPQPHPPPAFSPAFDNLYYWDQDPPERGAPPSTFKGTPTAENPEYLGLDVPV

Chain of ErbB2 with Exon 20 YVMA insertion (HER2-YVMA) (P04626 other isoform, or with tags, fused parts or gaps ins YVMA behind 775): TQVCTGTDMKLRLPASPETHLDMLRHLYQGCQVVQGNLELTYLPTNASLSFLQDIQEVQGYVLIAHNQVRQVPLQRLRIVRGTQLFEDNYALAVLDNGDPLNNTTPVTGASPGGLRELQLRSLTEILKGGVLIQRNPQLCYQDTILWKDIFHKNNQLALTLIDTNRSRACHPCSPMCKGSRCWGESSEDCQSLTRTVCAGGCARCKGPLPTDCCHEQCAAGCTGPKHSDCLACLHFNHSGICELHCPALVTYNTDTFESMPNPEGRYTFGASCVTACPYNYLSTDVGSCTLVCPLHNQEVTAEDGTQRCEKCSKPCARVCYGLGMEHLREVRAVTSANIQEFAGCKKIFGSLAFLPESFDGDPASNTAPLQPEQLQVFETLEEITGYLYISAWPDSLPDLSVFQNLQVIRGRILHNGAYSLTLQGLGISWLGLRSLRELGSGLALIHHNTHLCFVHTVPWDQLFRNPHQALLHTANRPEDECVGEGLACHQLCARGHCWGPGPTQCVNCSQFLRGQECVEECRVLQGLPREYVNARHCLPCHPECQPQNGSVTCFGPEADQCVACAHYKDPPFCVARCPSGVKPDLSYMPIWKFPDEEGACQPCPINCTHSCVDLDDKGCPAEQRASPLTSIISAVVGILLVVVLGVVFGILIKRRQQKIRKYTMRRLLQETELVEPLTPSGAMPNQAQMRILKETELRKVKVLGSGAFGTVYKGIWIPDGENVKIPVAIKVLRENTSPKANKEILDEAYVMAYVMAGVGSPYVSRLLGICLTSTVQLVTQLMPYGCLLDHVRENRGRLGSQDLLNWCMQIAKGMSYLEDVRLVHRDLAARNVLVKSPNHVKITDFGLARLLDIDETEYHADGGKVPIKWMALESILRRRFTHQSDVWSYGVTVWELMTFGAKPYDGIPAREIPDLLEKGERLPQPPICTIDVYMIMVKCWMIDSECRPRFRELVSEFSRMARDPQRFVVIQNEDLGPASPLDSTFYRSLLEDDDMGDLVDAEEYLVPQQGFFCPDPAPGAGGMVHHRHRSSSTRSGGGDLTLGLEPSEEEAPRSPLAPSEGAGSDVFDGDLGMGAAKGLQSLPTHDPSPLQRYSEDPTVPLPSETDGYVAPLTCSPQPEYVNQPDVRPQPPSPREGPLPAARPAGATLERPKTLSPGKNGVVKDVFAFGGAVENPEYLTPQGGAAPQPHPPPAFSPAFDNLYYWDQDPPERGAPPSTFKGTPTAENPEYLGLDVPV
Chain of EGFR (P00533 25-1210): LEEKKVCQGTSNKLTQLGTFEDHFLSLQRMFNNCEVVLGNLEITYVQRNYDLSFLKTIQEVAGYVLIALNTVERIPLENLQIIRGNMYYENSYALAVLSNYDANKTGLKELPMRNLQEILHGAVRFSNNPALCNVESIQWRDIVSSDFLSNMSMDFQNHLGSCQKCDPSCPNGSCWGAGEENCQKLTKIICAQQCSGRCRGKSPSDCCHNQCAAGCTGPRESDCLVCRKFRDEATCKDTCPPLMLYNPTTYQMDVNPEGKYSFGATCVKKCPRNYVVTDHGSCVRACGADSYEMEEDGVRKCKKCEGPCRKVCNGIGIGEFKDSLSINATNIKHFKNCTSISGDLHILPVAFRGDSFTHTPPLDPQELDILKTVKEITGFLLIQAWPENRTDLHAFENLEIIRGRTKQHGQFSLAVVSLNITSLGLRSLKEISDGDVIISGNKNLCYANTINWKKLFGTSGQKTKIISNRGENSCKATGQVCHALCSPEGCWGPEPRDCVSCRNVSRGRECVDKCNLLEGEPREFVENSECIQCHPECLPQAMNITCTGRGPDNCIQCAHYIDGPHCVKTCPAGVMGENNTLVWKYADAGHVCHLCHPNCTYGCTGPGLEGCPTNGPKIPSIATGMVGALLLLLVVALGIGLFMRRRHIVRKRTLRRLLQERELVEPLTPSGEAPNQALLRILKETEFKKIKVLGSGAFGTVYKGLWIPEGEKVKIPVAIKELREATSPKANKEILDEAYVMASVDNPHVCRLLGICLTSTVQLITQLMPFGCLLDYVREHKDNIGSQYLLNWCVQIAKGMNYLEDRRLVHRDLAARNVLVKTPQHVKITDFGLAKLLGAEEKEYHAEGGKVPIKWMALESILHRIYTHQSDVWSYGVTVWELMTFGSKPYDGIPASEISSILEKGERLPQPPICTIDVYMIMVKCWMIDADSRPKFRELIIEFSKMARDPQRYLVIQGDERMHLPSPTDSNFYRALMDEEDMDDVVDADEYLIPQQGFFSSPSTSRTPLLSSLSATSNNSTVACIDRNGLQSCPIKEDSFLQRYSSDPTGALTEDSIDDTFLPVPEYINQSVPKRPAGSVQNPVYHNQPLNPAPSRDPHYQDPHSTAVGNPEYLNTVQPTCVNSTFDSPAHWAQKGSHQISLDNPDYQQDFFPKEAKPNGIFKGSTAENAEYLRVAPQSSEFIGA
Chain of EGFR wild type (EGFR WT) (P00533 25-1210): as above

Structure (SMILES) | IC50 [1] | IC50 [2] | IC50 [3] | IC50 [4] | IC50 ([5]; read-out: Assay 1 IC50) | IC50 ([5]; Assay 1 IC50 (nM))
COC[C@@H]1CCN1c1ncc2ncnc(Nc3ccc(Oc4ccn5ncnc5c4)c(Cl)c3)c2n1 [Example 328] | 0.105 µM | 0.306 µM | ≥ 5 µM | ≥ 10 µM | 17.9 nM | 
O[C@@H]1C[C@@H]2C[C@H]1CN2c1ncc2ncnc(Nc3ccc(Oc4ccn5ncnc5c4)c(Cl)c3)c2n1 [Example 333] | 0.0232 µM | 0.0821 µM | ≥ 5 µM | 2.23 µM | 11.9 nM | 
Cc1cc(Nc2ncnc3cnc(N4CCOCC4)nc23)ccc1Oc1ccc2c(c1)ncn2C1CC1 [Example 73, N-(4-((1-cyclopropyl-1H-benzo[d]imidazol-5-yl)oxy)-3-methylphenyl)-6-morpholinopyrimido[5,4-d]pyrimidin-4-amine 2,2,2-trifluoroacetate] | 0.163 µM | 0.0475 µM | ≥ 5 µM | ≥ 10 µM |  | 78 nM
Cc1cc(Nc2ncnc3cnc(O[C@@H]4CNC[C@H](F)C4)nc23)ccc1Oc1ccc2c(c1)ncn2C [Example 295] | 0.551 µM | 0.0404 µM | ≥ 5 µM | ≥ 10 µM | 115 nM | 
CON1CCN(c2ncc3ncnc(Nc4ccc(Oc5ccn6ncnc6c5)c(C)c4)c3n2)CC1 [Example 96, N-(4-([1,2,4]triazolo[1,5-a]pyridin-7-yloxy)-3-methylphenyl)-6-(4-methoxypiperazin-1-yl)pyrimido[5,4-d]pyrimidin-4-amine] | 0.0812 µM | 0.0961 µM | ≥ 5 µM | 8.89 µM | 23.1 nM | 
O[C@H]1[C@@H]2CC[C@H]1CN(c1ncc3ncnc(Nc4ccc(Oc5ccn6ncnc6c5)c(Cl)c4)c3n1)C2 [Example 342] | 0.0253 µM | 0.108 µM | ≥ 5 µM | 1.67 µM | 10.4 nM | 
O[C@@H]1C[C@H]2C[C@@H]1CN2c1ncc2ncnc(Nc3ccc(Oc4ccn5ncnc5c4)c(Cl)c3)c2n1 [Example 332] | 0.0505 µM | 0.186 µM | ≥ 5 µM | ≥ 10 µM | 48.6 nM | 
Cc1cc(Nc2ncnc3cnc(N[C@H]4CNC[C@H]4F)nc23)ccc1Oc1ccc2c(c1)ncn2C [Example 276] | 0.0135 µM | 0.0415 µM | ≥ 5 µM | 1.36 µM | 8 nM | 
Cc1cc(Nc2ncnc3cnc(N4CC[C@@H](C(F)F)C4)nc23)ccc1Oc1ccn2ncnc2c1 [Example 400] | 0.0407 µM | 0.218 µM | ≥ 5 µM | 8.42 µM | 8.7 nM | 
COC[C@H]1CCN1c1ncc2ncnc(Nc3ccc(Oc4ccn5ncnc5c4)c(Cl)c3)c2n1 [Example 321] | 0.0657 µM | 0.072 µM | ≥ 5 µM | 4.34 µM | 12.9 nM | 
CN(c1ncc2ncnc(Nc3ccc(Oc4ccc5c(c4)ncn5C)c(Cl)c3)c2n1)[C@H]1CCOC1 [Example 117, (S)—N8-(3-chloro-4-((1-methyl-1H-benzo[d]imidazol-5-yl)oxy)phenyl)-N2-methyl-N2-(tetrahydrofuran-3-yl)pyrimido[5,4-d]pyrimidine-2,8-diamine] | 0.0933 µM | 0.0083 µM | ≥ 5 µM | ≥ 10 µM | 46.7 nM | 
Cc1cc(Nc2ncnc3cnc(O[C@@H]4CN(C)C[C@@H]4F)nc23)ccc1Oc1ccc2c(c1)ncn2C [Example 87, 6-(((3R,4S)-4-fluoro-1-methylpyrrolidin-3-yl)oxy)-N-(3-methyl-4-((1-methyl-1H-benzo[d]imidazol-5-yl)oxy)phenyl)pyrimido[5,4-d]pyrimidin-4-amine] | 0.346 µM | 0.0951 µM | ≥ 5 µM | ≥ 10 µM | 69.5 nM | 
Cc1cc(Nc2ncnc3cnc(N4CCCO4)nc23)ccc1Oc1cc(F)c2c(c1)ncn2C [Example 155, N-(4-((7-fluoro-1-methyl-1H-benzo[d]imidazol-5-yl)oxy)-3-methylphenyl)-6-(isoxazolidin-2-yl)pyrimido[5,4-d]pyrimidin-4-amine] | 0.0529 µM | 0.0055 µM | ≥ 5 µM | 4.28 µM | 22.5 nM | 
Clc1cc(Nc2ncnc3cnc(N4CC[C@@]45CCOC5)nc23)ccc1Oc1ccn2ncnc2c1 [Example 434] | 0.0102 µM | 0.161 µM | ≥ 5 µM | 0.76 µM | 8.4 nM | 
CC1(O)CN(c2ncc3ncnc(Nc4ccc(Oc5ccn6ncnc6c5)c(Cl)c4)c3n2)C1 [Example 324] | 0.119 µM | 0.124 µM | ≥ 5 µM | ≥ 10 µM | 64.4 nM | 
Cc1c(Oc2ccc3c(c2)ncn3C)ccc(Nc2ncnc3cnc(N4CC[C@@H](O)C4)nc23)c1F [Example 392] | 0.0146 µM | 0.0799 µM | ≥ 5 µM | ≥ 10 µM | 16.6 nM | 
Cc1cc(Nc2ncnc3cnc(N4C[C@@H]5[C@@H](C#N)[C@@H]5C4)nc23)ccc1Oc1ccc2c(c1)ncn2C [Example 401] | 0.161 µM | 0.0248 µM | ≥ 5 µM | ≥ 10 µM | 149 nM | 
Cc1cc(Nc2ncnc3cnc(N4C[C@]5(CCOC5)CC4=O)nc23)ccc1Oc1ccc2c(c1)ncn2C [Example 391] | 0.298 µM | 0.143 µM | ≥ 5 µM | ≥ 10 µM | 94.3 nM | 
Cc1cc(Nc2ncnc3cnc(N4CCN5CCOC[C@H]5C4)nc23)ccc1Oc1ccn2ncnc2c1 [Example 417] | 0.0621 µM | 0.0626 µM | ≥ 5 µM | 6.86 µM | 31.4 nM | 
Cc1cc(Nc2ncnc3cnc(N4CCCO4)nc23)ccc1Oc1ccn2ncnc2c1 [Example 428] | 0.203 µM | 0.317 µM | ≥ 5 µM | ≥ 10 µM | 55.5 nM | 
Cc1c(Oc2ccn3ncnc3c2)ccc(Nc2ncnc3cnc(N(C)CC4(O)CC4)nc23)c1F [Example 314] | 0.0881 µM | 2.02 µM | ≥ 5 µM | 6.08 µM | 29.8 nM | 
FC(F)O[C@@H]1CCN(c2ncc3ncnc(Nc4ccc(Oc5ccn6ncnc6c5)c(Cl)c4)c3n2)C1 [Example 354] | 0.029 µM | 0.0722 µM | ≥ 5 µM | ≥ 10 µM | 27.6 nM | 
CN(c1ncc2ncnc(Nc3ccc(Oc4ccn5ncnc5c4)c(Cl)c3)c2n1)C1COC1 [Example 424] | 0.0194 µM | 0.0449 µM | ≥ 5 µM | 3.93 µM | 16 nM | 
N#C[C@@H]1CCN(c2ncc3ncnc(Nc4ccc(Oc5ccn6ncnc6c5)c(Cl)c4)c3n2)C1 [Example 387] | 0.132 µM | 0.163 µM | ≥ 5 µM | ≥ 10 µM | 70 nM | 
Cc1cc(Nc2ncnc3cnc(N4CC(F)(F)C4)nc23)ccc1Oc1ccc2c(c1)ncn2C [Example 38, 6-(3,3-difluoroazetidin-1-yl)-N-(3-methyl-4-((1-methyl-1H-benzo[d]imidazol-5-yl)oxy)phenyl)pyrimido[5,4-d]pyrimidin-4-amine] | 0.403 µM | 0.0651 µM | ≥ 5 µM | ≥ 10 µM | 183 nM | 
Cc1cc(Nc2ncnc3cnc(N4CC[C@](C)(O)C4)nc23)ccc1Oc1ccn2ncnc2c1 [Example 365] | 0.0818 µM | 0.132 µM | ≥ 5 µM | 7.57 µM | 38.4 nM | 
O=S1(=O)CC[C@@H]2CN(c3ncc4ncnc(Nc5ccc(Oc6ccn7ncnc7c6)c(Cl)c5)c4n3)C[C@@H]21 [Example 433] | 0.0674 µM | 0.385 µM | ≥ 5 µM | ≥ 10 µM | 29.3 nM | 
Cc1cc(Nc2ncnc3cnc(O[C@@H]4CNCC4(F)F)nc23)ccc1Oc1ccc2c(c1)ncn2C [Example 301] | 0.241 µM | 0.0608 µM | ≥ 5 µM | ≥ 10 µM | 39.1 nM | 
CSc1ncc2ncnc(Nc3ccc(Oc4ccc5c(c4)ncn5C)c(C)c3F)c2n1 [Example 266] | 0.796 µM | 0.642 µM | ≥ 5 µM | ≥ 10 µM | 115 nM | 
Cc1cc(Nc2ncnc3cnc(N4CCC[C@@]45CCOC5)nc23)ccc1Oc1ccc2c(c1)ncn2C (racemic) [Example 115, rac-(R)—N-(3-methyl-4-((1-methyl-1H-benzo[d]imidazol-5-yl)oxy)phenyl)-6-(7-oxa-1-azaspiro[4.4]nonan-1-yl)pyrimido[5,4-d]pyrimidin-4-amine] | 0.0567 µM | 0.0156 µM | ≥ 5 µM | 2.19 µM | 52.4 nM | 
